According to publication PMC9585589 (ACS Chemical Neuroscience, 2022):
Where two headings read alike, the source gives them in different places.

Experiments:
human CB1 receptor = human CB1 receptor (Homo sapiens, UniProt P21554); assay: biochemical; format: binding; set-up: purchased Merck HTS019M; host or cells: Chem-1 cells
Text: Compounds selected for the in vitro binding assay from the first iteration of VS were purchased via MolPort, SIA, Riga, Latvia and Biopurify Phytochemicals Ltd., Chengdu, China. Compounds from the second iteration were purchased from MolPort, SIA, Riga, Latvia and Chemspace, SIA, Riga, Latvia (Supporting Information S3). […] Membranes from cells overexpressing the human CB1 receptor (ChemiScreen CB1 Cannabinoid Receptor Membrane Preparation, cat. no. HTS019M) as well as MgCl2, CaCl2, Trizma Base, NaCl, polyethylenimine (PEI) and dimethyl sulfoxide (DMSO) were purchased from Merck (USA). Bovine serum albumin (BSA) was obtained from Pol-Aura (Poland).
Compounds were dissolved in 50% DMSO and added to the reaction mixture at 10 concentrations equally spaced on a log scale (10^–10 to 10^–4.5 M). The final DMSO concentration was 5%. […] The reaction mixture (500 μL) was incubated for 1.5 h at 30°C . Before harvesting, Whatman GF/B Filter Paper (Brandel, USA) was presoaked with 0.33% PEI buffer for 30 min. and then washed with 2 ml of 50 mM Tris-HCl buffer (pH = 7.4) and 0.5% BSA to minimize non-specific binding. The reaction was terminated by depositing the samples onto GF/B filter paper with the Brandel M-24 Cell Harvester (Brandel, USA). Samples were then rapidly washed 3 times with 2 ml of ice-cold wash buffer (50 mM Tris-HCl pH 7.4, 500 mM NaCl) to separate the bound radioligand from free. Filters were then air-dried for 1 h at 60°C . After drying, filter discs were placed on a flexible 24-well plate and 500 μL of EcoScint-20 scintillant was added to each well. Plates were counted (2 min. per well) in a Trilux MicroBeta^2 2450 scintillation counter (Perkin Elmer, USA). Data were analyzed with GraphPad Prism 5.0 software.[89]

human CB1 = settings: one per compound, cited from earlier work
[1] = [3H]CP-55,940 displacement, membranes of Chem-1 cells expressing human CB1
[2] = CB1 agonists, Table S8, ref SI (1)-(19)
[3] = [3H]CP-55,940 displacement, membranes of Chem-1 cells expressing human CB1, read-out: pKi ± SEM (converted)

Sequence of human CB1 receptor (P21554 whole entry): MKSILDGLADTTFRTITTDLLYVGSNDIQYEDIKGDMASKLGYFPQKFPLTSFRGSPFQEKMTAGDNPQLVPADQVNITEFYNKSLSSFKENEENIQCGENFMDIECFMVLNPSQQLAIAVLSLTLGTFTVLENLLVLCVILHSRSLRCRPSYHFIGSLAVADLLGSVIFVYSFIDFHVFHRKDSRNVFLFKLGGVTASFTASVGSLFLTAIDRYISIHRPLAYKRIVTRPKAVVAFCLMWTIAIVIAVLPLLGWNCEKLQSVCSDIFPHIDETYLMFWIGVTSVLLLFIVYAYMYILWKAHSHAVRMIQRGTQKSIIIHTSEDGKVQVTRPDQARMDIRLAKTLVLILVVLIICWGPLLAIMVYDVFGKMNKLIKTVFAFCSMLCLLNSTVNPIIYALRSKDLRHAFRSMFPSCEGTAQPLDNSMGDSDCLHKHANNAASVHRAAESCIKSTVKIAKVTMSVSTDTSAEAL

Structure (SMILES) | pKi ± SEM (human CB1 receptor; [1]) | Ki (μM, 95% CI) (human CB1 receptor) | other results
Cc1c(O[C@H](C)C(=O)NC[C@@H](O)c2ccccc2)ccc2c(-c3ccccc3)cc(=O)oc12 (racemic) [Compound 25] | 4.86 ± 0.09 |  | Ki (human CB1 receptor; read-out: Ki (μM, 95% CI)): 13.9 µM
Cc1ccc(COc2ccc3c(C)c(CC(=O)N4CCC5(O)CCCCC5C4)c(=O)oc3c2C)cc1 (racemic) [Compound 27] | insoluble | insoluble | 
COc1ccc(-c2cc(=O)c3c(O)cc4c(c3o2)C(c2cccc(Cl)c2F)CC(=O)O4)cc1O (racemic) [Compound 31] | no activity | no activity | 
Cc1ccc(S(=O)(=O)NC(Cc2c[nH]c3ccccc23)C(=O)Oc2ccc3c4c(c(=O)oc3c2)CCC4)cc1 (racemic) [Compound 36] | 4.39 ± 0.09 |  | Ki (human CB1 receptor; read-out: Ki (μM, 95% CI)): 41 µM
COc1cc2c(cc1OC)CN(C(=O)NC(CCSC)C(=O)NC1CCCc3ccccc31)CC2 (racemic) [Compound 39] | 4.40 ± 0.07 |  | Ki (human CB1 receptor; read-out: Ki (μM, 95% CI)): 40 µM
CCCCNC(=O)[C@@H]1CN(C(=O)c2cccc(OC)c2)C[C@H]1c1ccc(OC)cc1OC (racemic) [Compound 42] | no activity | no activity | 
CCCCC/C=C\C/C=C\C/C=C\C/C=C\CCCC(=O)NCCCl [ACEA] |  |  | Ki (human CB1; [2]): 0.0053 µM
Cc1c(C(=O)NN2CCOCC2)nn(-c2ccc(Cl)cc2Cl)c1-c1ccc(I)cc1 [AM-281] |  |  | Ki (human CB1; CB1 antagonists/inverse agonists, Table S9, ref SI (20)-(38)): 0.012 µM
CC1=CC[C@@H]2[C@@H](C1)c1c(O)cc(C34CC5CC(CC(C5)C3)C4)cc1OC2(C)C [AM-411] |  |  | Ki (human CB1; [2]): 0.0068 µM
CC(C)(CCCCCCN=C=S)c1cc(O)c2c(c1)OC(C)(C)[C@@H]1CC[C@@H](CO)C[C@@H]21 [AM-841] |  |  | Ki (human CB1; [2]): 0.00114 µM
COc1ccccc1Oc1c(NS(=O)(=O)c2ccc(C(C)(C)C)cc2)nc(-c2ncccn2)nc1OCCO [Compound 1, Bosentan] |  |  | Ki (human CB1 receptor; Ki (μM, 95% CI)): 259 µM
O=c1[nH]c2ccccc2n1CCN1CCN(c2cccc(C(F)(F)F)c2)CC1 [Compound 2, Flibanserin] |  |  | Ki (human CB1 receptor; Ki (μM, 95% CI)): 109 µM
COc1cc(C(C)=O)ccc1OCCCN1CCC(c2noc3cc(F)ccc23)CC1 [Compound 3, Iloperidone] |  |  | Ki (human CB1 receptor; Ki (μM, 95% CI)): 87.9 µM; Ki (human CB1 receptor; [3]): 89.1 µM
O=C1[C@@H]2[C@H]3CC[C@H](C3)[C@@H]2C(=O)N1C[C@@H]1CCCC[C@H]1CN1CCN(c2nsc3ccccc23)CC1 [Compound 4, Lurasidone] |  |  | Ki (human CB1 receptor; Ki (μM, 95% CI)): 39.8 µM
COC(=O)C1=C(C)NC(C)=C(C(=O)OCCN(C)Cc2ccccc2)C1c1cccc([N+](=O)[O-])c1 (stereo not drawn) [Compound 5, Nicardipine] | no activity | no activity | 
CC(C)COc1ccc(CNC(=O)N(Cc2ccc(F)cc2)C2CCN(C)CC2)cc1 [Compound 6, Pimavanserin] |  |  | Ki (human CB1 receptor; [3]): 33.9 µM
O=C(NC[C@H]1CN(c2ccc(N3CCOCC3=O)cc2)C(=O)O1)c1ccc(Cl)s1 [Compound 7, Rivaroxaban] | no activity | no activity | 
CCCSc1nc(N[C@@H]2C[C@H]2c2ccc(F)c(F)c2)c2nnn([C@@H]3C[C@H](OCCO)[C@@H](O)[C@H]3O)c2n1 [Compound 8, Ticagrelor] |  |  | Ki (human CB1 receptor; [3]): 36.3 µM
CC(C)=CCC[C@](C)(O)[C@H]1CC[C@]2(C)[C@@H]1[C@H](O)C[C@@H]1[C@@]3(C)CC[C@H](O)C(C)(C)[C@@H]3[C@@H](O)C[C@]12C [Compound 10, (20S)-Protopanaxatriol] | no activity | no activity | 
O=c1cc(-c2ccc(O)cc2)oc2c(C3O[C@H](CO)[C@@H](O[C@@H]4O[C@H](CO)[C@@H](O)[C@H](O)[C@H]4O)[C@H](O)[C@H]3O)c(O)cc(O)c12 (stereo partly drawn) [Compound 11, 4”-O-Glucosylvitexin] | no activity | no activity | 

Structure (SMILES) | pKi ± SEM (human CB1 receptor; [1]) | Ki (μM, 95% CI) (human CB1 receptor) | other results
C[C@@]12C[C@@]3(O)O[C@@H](O1)[C@]1(COC(=O)c4ccccc4)[C@H]3C[C@@]12O[C@@H]1O[C@H](COC(=O)c2ccccc2)[C@@H](O)[C@H](O)[C@H]1O [Compound 12, Benzoylpaeoniflorin] |  |  | Ki (human CB1 receptor; Ki (μM, 95% CI)): 179 µM
O=C(O[C@@H]1O[C@@H]2COC(=O)c3cc(O)c(O)c(O)c3-c3c(cc(O)c(O)c3O)C(=O)O[C@H]([C@H]1O)[C@@H]2O)c1cc(O)c(O)c(O)c1 [Compound 13, Corilagin] |  |  | Ki (human CB1 receptor; Ki (μM, 95% CI)): 48 µM
CC(C)(O)[C@@H]1CC[C@](C)([C@H]2[C@@H](O)C[C@@]3(C)[C@@H]4C[C@H](O)[C@H]5C(C)(C)[C@@H](O)CC[C@@]56C[C@@]46CC[C@]23C)O1 [Compound 14, Cyclogalegenol] | 3.76 ± 0.20 |  | Ki (human CB1 receptor; read-out: Ki (μM, 95% CI)): 175 µM
COc1cc2c(cc1OC)[C@@H](Cc1ccc(O)c(Oc3cc4c(cc3OC)CCN(C)[C@@H]4Cc3ccc(O)cc3)c1)N(C)CC2 [Compound 16, Liensinine] | no activity | no activity | 
COc1cc2c(=O)c3c(O)c([C@@H]4O[C@H](CO[C@@H]5OC[C@](O)(CO)[C@H]5O)[C@@H](O)[C@H](O)[C@H]4O)c(O)cc3oc2cc1O [Compound 18, Polygalaxanthone III] | no activity | no activity | 
OCC1=C[C@@H](O)[C@]2(O[C@@H]3O[C@H](CO)[C@@H](O)[C@H](O)[C@H]3O[C@@H]3O[C@H](CO)[C@@H](O)[C@H](O)[C@H]3O)C=CO[C@@H](O[C@@H]3O[C@H](CO)[C@@H](O)[C@H](O)[C@H]3O)[C@H]12 [Compound 19, Rehmannioside D] | no activity | no activity | 
COc1cc(C2Oc3cc([C@H]4Oc5cc(O)cc(O)c5C(=O)[C@@H]4O)ccc3OC2CO)ccc1O (stereo partly drawn) [Compound 20, Silybin] |  |  | Ki (human CB1 receptor; Ki (μM, 95% CI)): 165 µM
O=c1c(O)cc([C@H]2Oc3cc(O)cc(O)c3C[C@H]2O)cc2c([C@H]3Oc4cc(O)cc(O)c4C[C@H]3O)cc(O)c(O)c12 [Compound 21, Theaflavin] | no activity | no activity | 
O=C(/C=C/c1ccc(O)cc1)OC[C@H]1O[C@@H](Oc2c(-c3ccc(O)cc3)oc3cc(O)cc(O)c3c2=O)[C@H](O)[C@@H](O)[C@@H]1O [Compound 22, Tiliroside] |  |  | Ki (human CB1 receptor; Ki (μM, 95% CI)): 47.2 µM
O=C(NCCc1ccc(F)cc1)c1cc2c([nH]c3ccccc32)c(-c2ccc(F)cc2)n1 [Compound 23] | no activity | no activity | 
CC(C)=CCC/C(C)=C/Cc1cc(C2CC(=O)c3c(O)cc(O)cc3O2)c(O)cc1O (stereo not drawn) [Compound 24, Kuwanon E] |  |  | Ki (human CB1 receptor; [3]): 30.9 µM
CC(C)=CCCC1(C)C=Cc2c(ccc(C3CC(=O)c4c(O)cc(O)cc4O3)c2O)O1 (stereo not drawn) [Compound 26, Sanggenon N] | 4.71 ± 0.05 |  | Ki (human CB1 receptor; read-out: Ki (μM, 95% CI)): 19 µM
COc1ccc(CCNC(=O)c2[nH]c3ccccc3c2NC(=O)c2cccc(C)c2)cc1OC [Compound 28] | no activity | no activity | 
CCCS(=O)(=O)Nc1ccc(F)c(C(=O)c2c[nH]c3ncc(-c4ccc(Cl)cc4)cc23)c1F [Compound 29, Vemurafenib] | no activity | no activity | 
COc1ccc(-c2nc(C(=O)NCCc3ccc(Cl)cc3Cl)cc3c2[nH]c2ccccc23)cc1OC [Compound 35] | 4.35 ± 0.09 |  | Ki (human CB1 receptor; read-out: Ki (μM, 95% CI)): 44 µM
COc1ccc(-c2nc3ccc(C(=O)NCc4ccc(Cl)cc4)cc3nc2-c2ccc(OC)cc2)cc1 [Compound 37] | no activity | no activity | 
COc1ccc(-n2c(=O)c3ccc(C(=O)NCCc4ccccc4)cc3n(Cc3ccccc3F)c2=O)cc1 [Compound 40] | no activity | no activity | 
O=C1NCCN1CCN1CCC(c2cn(-c3ccc(F)cc3)c3ccc(Cl)cc23)CC1 [Compound 44, Sertindole] |  |  | Ki (human CB1 receptor; [3]): 41.7 µM
Cc1nc2c([nH]1)-c1ccccc1N(C(=O)c1ccc(NC(=O)c3ccccc3-c3ccccc3)cc1)CC2 [Compound 45, Conivaptan] | no activity | no activity | 
